The assay deals with GNCA4-WT (GNCA4-W229D/F290W). As to conditions: pH 7, 25 °C, 100 mM NaCl, 5% acetonitrile, His-tag.

The term Km denotes the substrate concentration at which the rate is half of its maximum.

`O=[N+]([O-])c1ccc2oncc2c1` [5-nitrobenzisoxazole]: the Km stood at 3.7 ± 0.8 mM.

The record behind these values is paper PMC7407621, “Enhancing a de novo enzyme activity by computationally-focused ultra-low-throughput screening” (Chemical Science, 2020).
